From patent publication US20200368312A1 (priority 2017, published 2020)
≈ marks a conversion by molar mass, not a printed value. Like-named read-outs stand apart in the source and are kept apart here.

Experiments:
Assay type in all cases: cell-based
S. hominis (CoNS) = experiment: Broth microdilution MIC, S. hominis (CoNS) (Table 7); conditions: S. hominis (CoNS) MMX 667 ATCC 27844
Enterococci = system: Enterococci
C. perfringens = C. perfringens MMX 8351 ATCC 13124
S. epidermidis (CoNS) = experiment: Broth microdilution MIC, S. epidermidis (CoNS) (Table 7)
Staphylococcus aureus = experiment: microbe, parasite or virus in culture; conditions: for MIC: Staphylococcus aureus
S. lugdenensis (CoNS) = experiment: Broth microdilution MIC, S. lugdenensis (CoNS) (Table 7); conditions: S. lugdenensis (CoNS) MMX 8724
Streptococci = experiment: Broth microdilution MIC, Streptococci (Example 11, Table 7)
Clostridium difficile = experiment: Broth microdilution MIC, C. difficile, anaerobic, supplemented Brucella Broth (Example 11, Table 7)
E. lenta = experiment: Broth microdilution MIC, E. lenta (Table 7); conditions: E. lenta MMX 1287 ATCC 43055
P. micros = experiment: Broth microdilution MIC, P. micros (Table 7); conditions: P. micros MMX 3546
S. haemolyticus (CoNS) = experiment: Broth microdilution MIC, S. haemolyticus (CoNS) (Table 7); conditions: S. haemolyticus (CoNS) MMX 529 ATCC 29970
P. acnes = experiment: Broth microdilution MIC, P. acnes (Table 7)
P. anaerobius = experiment: Broth microdilution MIC, P. anaerobius (Table 7); conditions: P. anaerobius MMX 1208 ATCC 27337

Question: With `CN(C)c1cc(NC(=O)CNC(C)(C)C)c(O)c2c1C[C@H]1C[C@H]3[C@H](N(C)C)C(O)=C(C(N)=O)C(=O)[C@@]3(O)C(O)=C1C2=O` [Tigecycline] as the compound, how does the MIC (S. hominis (CoNS)) read?
Answer: The MIC was 0.12 µg/mL (≈ 0.205 µM).

Question: And the MIC (Enterococci; E. faecalis MMX 101 ATCC 29212, VSE)?
Answer: Its MIC is 0.06 µg/mL (≈ 0.102 µM).

Question: And the MIC (Enterococci; E. faecalis MMX 1086, VanA VRE)?
Answer: The MIC was 0.12 µg/mL (≈ 0.205 µM).

Question: And the MIC (Enterococci; E. faecalis MMX 4176)?
Answer: Its MIC is 0.12 µg/mL (≈ 0.205 µM).

Question: And the MIC (Enterococci; E. faecium MMX 173, VanB VRE)?
Answer: Its MIC is 0.06 µg/mL (≈ 0.102 µM).

Question: And the MIC (Enterococci; E. faecium MMX 851, VanA VRE)?
Answer: The MIC was 0.06 µg/mL (≈ 0.102 µM).

Question: And the MIC (Enterococci; E. faecium MMX 4204)?
Answer: Its MIC is 0.06 µg/mL (≈ 0.102 µM).

Question: And the MIC (C. perfringens)?
Answer: The MIC was 0.12 µg/mL (≈ 0.205 µM).

Question: What about the MIC (S. epidermidis (CoNS); S. epidermidis (CoNS) MMX 762, MRSE) of the same compound?
Answer: The MIC was 0.06 µg/mL (≈ 0.102 µM).

Question: And the MIC (S. epidermidis (CoNS); S. epidermidis (CoNS) MMX 5145, MRSE)?
Answer: Its MIC is 0.12 µg/mL (≈ 0.205 µM).

Question: What about the “RV40 activity as compared to Comparator” value (Staphylococcus aureus; MRSA strains (Table 5), […]) of the same compound?
Answer: Its value is 16 ×.

Question: What about the MIC (Staphylococcus aureus; ATCC 29213 / MSSA, S. aureus MMX 100 ATCC 29213, MSSA (quality control)) of the same compound?
Answer: Its MIC is 0.25 µg/mL (≈ 0.427 µM).

Question: What about the MIC (Staphylococcus aureus; ATCC 33591 / MRSA, S. aureus MMX 5717 ATCC 33591, MRSA) of the same compound?
Answer: Its MIC is 0.25 µg/mL (≈ 0.427 µM).

Question: What about the MIC (Staphylococcus aureus; ATCC BAA-1556 / MRSA, S. aureus MMX 4675 ATCC BAA-1556, MRSA) of the same compound?
Answer: The MIC was 0.12 µg/mL (≈ 0.205 µM).

Question: What about the MIC (Staphylococcus aureus; ATCC BAA-1756 / MRSA, S. aureus MMX 2011 ATCC BAA-1756, MRSA) of the same compound?
Answer: Its MIC is 0.12 µg/mL (≈ 0.205 µM).

Question: What about the MIC (Staphylococcus aureus; MRSA, S. aureus MMX 2010, MRSA) of the same compound?
Answer: Its MIC is 0.09 µg/mL (≈ 0.154 µM).

Question: And the MIC (Staphylococcus aureus; MRSA, S. aureus MMX 3982, MRSA)?
Answer: The MIC was 0.185 µg/mL (≈ 0.316 µM).

Question: What about the MIC (Staphylococcus aureus; MRSA, S. aureus MMX 5985, MRSA) of the same compound?
Answer: Its MIC is 0.185 µg/mL (≈ 0.316 µM).

Question: And the MIC (Staphylococcus aureus; MRSA, S. aureus MMX 5999, MRSA)?
Answer: The MIC was 0.12 µg/mL (≈ 0.205 µM).

Question: What about the MIC (Staphylococcus aureus; MRSA, S. aureus MMX 7899, MRSA) of the same compound?
Answer: Its MIC is 0.12 µg/mL (≈ 0.205 µM).

Question: What about the MIC (Staphylococcus aureus; MRSA, S. aureus MMX 7900, MRSA) of the same compound?
Answer: The MIC was 0.185 µg/mL (≈ 0.316 µM).

Question: And the MIC (Staphylococcus aureus; MRSA, S. aureus MMX 7901, MRSA)?
Answer: The MIC was 0.12 µg/mL (≈ 0.205 µM).

Question: And the MIC (Staphylococcus aureus; MRSA, S. aureus MMX 7902, MRSA)?
Answer: Its MIC is 0.12 µg/mL (≈ 0.205 µM).

Question: And the MIC (Staphylococcus aureus; MRSA, S. aureus MMX 7903, MRSA)?
Answer: The MIC was 0.12 µg/mL (≈ 0.205 µM).

Question: And the MIC (Staphylococcus aureus; MSSA, S. aureus MMX 2490, MSSA)?
Answer: The MIC was 0.12 µg/mL (≈ 0.205 µM).

Question: And the MIC (Staphylococcus aureus; MSSA, S. aureus MMX 7907, MSSA)?
Answer: Its MIC is 0.12 µg/mL (≈ 0.205 µM).

Question: And the MIC (Staphylococcus aureus; MSSA, S. aureus MMX 7908, MSSA)?
Answer: The MIC was 0.12 µg/mL (≈ 0.205 µM).

Question: What about the MIC (Staphylococcus aureus; S. aureus MMX 4665, hVISA) of the same compound?
Answer: Its MIC is 0.25 µg/mL (≈ 0.427 µM).

Question: And the MIC (Staphylococcus aureus; S. aureus MMX 5989, Mu3, hVISA)?
Answer: Its MIC is 0.75 µg/mL (≈ 1.28 µM).

Question: What about the MIC (Staphylococcus aureus; VISA, S. aureus MMX 1723, Mu50) of the same compound?
Answer: The MIC was 0.5 µg/mL (≈ 0.854 µM).

Question: And the MIC (Staphylococcus aureus; VISA, S. aureus MMX 2124, VISA, DaptoNS)?
Answer: The MIC was 0.045 µg/mL (≈ 0.0768 µM).

Question: And the MIC (Staphylococcus aureus; VISA, S. aureus MMX 4658, VISA)?
Answer: Its MIC is 0.12 µg/mL (≈ 0.205 µM).

Question: And the MIC (Staphylococcus aureus; VISA, S. aureus MMX 4660, VISA)?
Answer: The MIC was 0.09 µg/mL (≈ 0.154 µM).

Question: And the MIC (S. lugdenensis (CoNS))?
Answer: The MIC was 0.06 µg/mL (≈ 0.102 µM).

Question: What about the MIC (Streptococci; S. agalactiae MMX 4088) of the same compound?
Answer: Its MIC is 0.03 µg/mL (≈ 0.0512 µM).

Question: What about the MIC (Streptococci; S. agalactiae MMX 4115, erm^R) of the same compound?
Answer: Its MIC is 0.03 µg/mL (≈ 0.0512 µM).

Question: And the MIC (Streptococci; S. anginosus (AGS) MMX 1201 ATCC 33397)?
Answer: Its MIC is 0.008 µg/mL (≈ 0.0137 µM).

Question: And the MIC (Streptococci; S. constellatus (AGS) MMX 5677)?
Answer: Its MIC is 0.03 µg/mL (≈ 0.0512 µM).

Question: What about the MIC (Streptococci; S. dysgalactiae MMX 5121) of the same compound?
Answer: The MIC was 0.06 µg/mL (≈ 0.102 µM).

Question: What about the MIC (Streptococci; S. dysgalactiae MMX 5123) of the same compound?
Answer: Its MIC is 0.015 µg/mL (≈ 0.0256 µM).

Question: What about the MIC (Streptococci; S. dysgalactiae MMX 5124) of the same compound?
Answer: The MIC was 0.12 µg/mL (≈ 0.205 µM).

Question: And the MIC (Streptococci; S. mitis (MGS) MMX 5798)?
Answer: The MIC was 0.03 µg/mL (≈ 0.0512 µM).

Question: What about the MIC (Streptococci; S. oralis (MGS) MMX 5821) of the same compound?
Answer: The MIC was 0.06 µg/mL (≈ 0.102 µM).

Question: What about the MIC (Streptococci; S. pneumoniae MMX 432, PRSP) of the same compound?
Answer: Its MIC is 0.03 µg/mL (≈ 0.0512 µM).

Question: And the MIC (Streptococci; S. pneumoniae MMX 747)?
Answer: Its MIC is 0.03 µg/mL (≈ 0.0512 µM).

Question: What about the MIC (Streptococci; S. pneumoniae MMX 1195 ATCC 49619, PISP) of the same compound?
Answer: Its MIC is 0.06 µg/mL (≈ 0.102 µM).

Question: What about the MIC (Streptococci; S. pyogenes MMX 404 ATCC 19615) of the same compound?
Answer: Its MIC is 0.015 µg/mL (≈ 0.0256 µM).

Question: And the MIC (Streptococci; S. pyogenes MMX 946, ermR)?
Answer: Its MIC is 0.015 µg/mL (≈ 0.0256 µM).

Question: And the MIC (Streptococci; S. pyogenes MMX 8778)?
Answer: The MIC was 0.03 µg/mL (≈ 0.0512 µM).

Question: And the MIC (Clostridium difficile; C. difficile MMX 4381 ATCC 700057, toxinAB-negative)?
Answer: Its MIC is 0.18 µg/mL (≈ 0.307 µM).

Question: And the MIC (Clostridium difficile; C. difficile MMX 4994 ATCC BAA-1805, ribotype 027)?
Answer: Its MIC is 0.03 µg/mL (≈ 0.0512 µM).

Question: And the MIC (Clostridium difficile; C. difficile MMX 5668 ATCC BAA-1870, NAP1/027)?
Answer: The MIC was 0.03 µg/mL (≈ 0.0512 µM).

Question: What about the MIC (E. lenta) of the same compound?
Answer: Its MIC is 0.25 µg/mL (≈ 0.427 µM).

Question: And the MIC (P. micros)?
Answer: The MIC was 0.015 µg/mL (≈ 0.0256 µM).

Question: And the MIC (S. haemolyticus (CoNS))?
Answer: The MIC was 0.06 µg/mL (≈ 0.102 µM).

Question: And the MIC (P. acnes; P. acnes MMX 7942 ATCC 6919)?
Answer: Its MIC is 0.03 µg/mL (≈ 0.0512 µM).

Question: And the MIC (P. acnes; P. acnes MMX 7946 ATCC 11827)?
Answer: Its MIC is 0.03 µg/mL (≈ 0.0512 µM).

Question: And the MIC (P. anaerobius)?
Answer: The MIC was 0.03 µg/mL (≈ 0.0512 µM).
